BindingDB's records for doi:10.1016/s0960-894x(00)00465-0 (Boehringer Ingelheim Pharmaceuticals, 2001)
Non-standard residues stand in square brackets, D forms with d. Residues, ends and D or L forms follow the SMILES beside them. *: point of attachment. Hyp = O=C(O)[C@@H]1C[C@@H](O)CN1; Chg = N[C@H](C(=O)O)C1CCCCC1; Nva = CCC[C@H](N)C(=O)O; X1 = c1ccc2cc(C*)ccc2c1

Test: Compound was evaluated for its inhibitory activity against porcine pancreatic elastase (PPE)

IC50: > 300 µM
SMILES: CCC[C@H](NC(=O)[C@@H]1C[C@@H](OCc2ccc3ccccc3c2)CN1C(=O)[C@@H](NC(=O)[C@@H](NC(=O)[C@@H](CCC(=O)O)NC(=O)[C@H](CC(=O)O)NC(C)=O)C1CCCCC1)C(C)C)C(=O)O [(S)-2-{[(2S,4R)-1-((S)-2-{(S)-2-[(R)-2-((S)-2-Acetylamino-3-carboxy-propionylamino)-4-carboxy-butyrylamino]-2-cyclohexyl-acetylamino}-3-methyl-butyryl)-4-(naphthalen-2-ylmethoxy)-pyrrolidine-2-carbonyl]-amino}-pentanoic acid] (Ac-D[dE][Chg]V[Hyp](X1)[Nva]-OH)
